{"source": "patent US20260364072A1", "about": "“METHODS FOR PROMOTING EXPANSION OF HUMAN CD34+ CELLS IN VIVO AND FOR PROMOTING NEURAL REGENERATION” (THE REGENTS OF THE UNIVERSITY OF CALIFORNIA, priority 2023, published 2026)", "key": {"[1]": {"test_system": "MCL1-L, BCL-XL, BCL-2, SF3B1, SF3B3 transcripts", "assay": "Splicing effects on LSC-enriched anti-apoptotic transcripts and splicing factor gene products", "type": "cell-based, human", "method": "For quantitative analysis of splice isoform expression, RNA editing rates, and whole gene expression by qRT-PCR, cells or tissue fragments were harvested in RNA lysis buffer and total RNA was extracted using RNeasy mini or micro extraction kits (QIAGEN, Germantown, MD) following the manufacturer's protocol including a DNase incubation step to digest any trace genomic DNA present. Levels of ADAR1 variants and LSC-specific transcripts were quantified by qRT-PCR as previously described.^14 RNA-editing site-specific qRT-PCR (RESSqPCR) was performed for variants in AZIN1 transcripts.^53 Additional species-specific primers were also designed to quantify intron retention rates in cells treated with Rebecsinib as a biomarker of response to RNA splicing modulation. Specifically, for the two-step SYBR-green based assays, as previously described,^7,14,53 100-1000 ng of RNA were subjected to cDNA synthesis using the SUPERSCRIPT III™ (ThermoFisher Scientific) kit followed by qRT-PCR using SYBR GreenER (ThermoFisher Scientific) master mix according to the manufacturer's recommended procedures. qRT-PCR was performed using SYBR GREENER SUPER MIX™ (Life Technologies) on BioRad iQ5™, C1000 TOUCH™, or BioRad CFX384™ instruments. […] Relative mRNA expression values were calculated using the 2^−ΔCT method, with normalization to untreated or vehicle-treated controls.^54"}, "[2]": {"test_system": "sAML LSC, MF HPC, normal HSPC", "assay": "Clonogenic survival and replating (self-renewal) assays in stromal co-culture", "type": "cell-based, human", "source_text": "(FIG. 28D, FIG. 28E) Quantification of colony formation (survival, FIG. 28D) and replating (self-renewal, FIG. 28E) of high-risk MF HPC and sAML LSC compared with cord blood (CB) and aged versus young normal bone marrow (a-NBM, y-NBM) controls treated with Rebecsinib at increasing concentrations. Bar graphs show data as mean±SEM and statistical analyses by pairwise t-test and dose-response assays show data as mean±SD and statistical analyses by one-way ANOVA.\n(§1) Primary patient samples and normal bone marrow controls used for functional assays are described in Table 1. Human HS5 and HS27a^45 or mouse bone marrow cells lines SL (hSCF and hIL3) and M2 (hIL3 and hG-CSF) were irradiated and then mixed at a ratio of 1:1 and incubated overnight for attachment. […] After 2 weeks primary colonies (more than 40 cells) were counted and individual multilineage colonies were plucked, cells resuspended, and re-plated again in fresh MC. Secondary colonies were counted after another 14 days. […]\nas §1, with “Human” for “Primary patient samples and normal bone marrow controls used for functional assays are described in Table 1. Human”, “resuspended” for “resuspended,”"}, "[3]": {"test_system": "MDA-MB-231 cells", "assay": "IVIS total flux in MDA-MB-231 transplanted mice", "type": "in vivo, human cells in Rag2 neonatal mice", "details": "0 day after completing the dosing plan; compared to vehicle control", "source_text": "FIG. 5 graphically illustrates IVIS (In Vivo Imaging System) results of ADAR1-MDA-MB-231 transplanted Rag2 mouse models, and IVIS images were taken at 6 weeks after transplant (FIG. 5A), after two weeks of therapy (FIG. 5B), and one week after therapy was completed (FIG. 5C), as discussed in further detail in Example 5, below.\nTen thousand (10k) MDA-MB-231 cells were intrahepatically transplanted into Rag2 neonatal mice, then treated with fedratinib, rebecsinib, or a combination of fedratinib and rebecsinib. IVIS images were taken at 6 weeks after transplant (FIG. 5A), after two weeks of therapy (FIG. 5B), and one week after therapy was completed (FIG. 5C). The IVIS signals from the mice were graphed by groups.\nThe IVIS images of these mice were taken at 0 day after completing the dosing plan and are graphed by their total flux."}, "[4]": {"test_system": "MF HPC", "assay": "Viability of high-risk MF CD34+ cells by flow cytometry", "type": "cell-based, human", "details": "72 hr, compared with vehicle controls", "method": "(FIG. 28B) Flow cytometry-based viable cell counts (5,000 events measured) in high-risk MF samples after in vitro treatment of primary CD34^+ cells with vehicle control (DMSO) or Rebecsinib (72 hr).\nHuman HS5 and HS27a^45 or mouse bone marrow cells lines SL (hSCF and hIL3) and M2 (hIL3 and hG-CSF) were irradiated and then mixed at a ratio of 1:1 and incubated overnight for attachment. CD34^+ were selected from high-risk MF and sAML primary samples using magnetic beads (Miltenyi Biotec, Germany). As a control, CD34^+ cells from aged normal bone marrow (aNBM), young normal BM (yNBM) and cord blood (All Cells Inc, Alameda, CA) mononuclear cells were utilized. To establish co-cultures, 10,000-15,000 CD34^+ cells were added to SLM2 stroma in 1 ml of MYELOCULT H5100™ (STEMCELL Technologies, Vancouver, Canada). Rebecsinib or DMSO control were added at the initiation of co-culture at indicated concentrations. After one week, cells that were both attached to stroma and floating were collected, resuspended in fresh media and plated in methylcellulose (MC) H4330™ (STEMCELL Technologies) in triplicate. After 2 weeks primary colonies (more than 40 cells) were counted and individual multilineage colonies were plucked, cells resuspended and re-plated again in fresh MC. Secondary colonies were counted after another 14 days. […]"}, "[5]": {"test_system": "sAML PDX mouse models", "assay": "Survival of humanized sAML PDX mice", "type": "in vivo, human sAML cells in mice", "method": "Here, we established humanized mouse models using CD34^+ stem cells isolated from the peripheral blood of adult secondary AML (sAML) patients or bone marrow of normal-aged donors (63-79 years old).\nThe mouse models were screened by staining the PB of each mouse with a human CD45 mAb. Mice with a threshold of human CD45^+ cells >1% were included in the treatment cohort for Rebecchini. The dosing plan involved administering Rebecsinib at a dose of 10 mg/kg, intravenously, twice a week for 2 weeks, with a total of 5 doses. Single cells were isolated from the mouse organs, including PB, SP, and BM, and subjected to staining with human stem cell markers and lineage cell markers.\nThese mice were monitored for survival throughout the study until they reached the endpoint. Survival data were analyzed using a Log-rank test."}}, "data": [{"compound": "CC[C@H](OC)[C@@H](C)[C@H]1O[C@@H]1[C@@H](O)[C@H](C)/C=C/C=C(\\C)[C@H]1OC(=O)C[C@H](O)CC[C@@](C)(O)[C@@H](OC(C)=O)/C=C/[C@@H]1C", "note": "[Rebecsinib]", "values": [{"measurement": "LSC-enriched anti-apoptotic transcripts, including MCL1-L, BCL-XL, and BCL-2", "setting": "[1]", "result": "reduces"}, {"measurement": "intron retention in splicing factor gene products, such as SF3B1 and SF3B3", "setting": "[1]", "result": "induces marked intron retention"}, {"measurement": "effect on normal HSPC and mature hematopoietic progeny", "setting": "[2]; 1 μM, compared with DMSO (vehicle)", "result": "no significant differences"}, {"measurement": "clonogenic survival and replating (self-renewal) sensitivity", "setting": "[2]; sAML LSC vs MF HPC or normal cord blood, young or aged bone marrow HPCs", "result": "greater sensitivity of secondary AML (sAML) LSC"}, {"measurement": "total flux (IVIS)", "setting": "[3]", "result": "significantly decreased"}, {"measurement": "MF HPC viability", "setting": "[4]", "result": "decreased MF HPC viability"}, {"measurement": "survival of sAML-engrafted mice", "setting": "[5]; compared to vehicle, fedratinib, and the combination of rebecsinib and fedratinib", "result": "survived significantly longer"}, {"measurement": "survival time versus single fedratinib", "setting": "[5]; single rebecsinib vs single fedratinib, p=0.016, Log-rank test", "result": "significantly longer"}, {"measurement": "survival time versus vehicle", "setting": "[5]; single rebecsinib vs vehicle, p=0.0003, Log-rank test", "result": "significantly longer"}]}]}
